The results in this text go back to ChEMBL document CHEMBL3779887, “Robenidine Analogues as Gram-Positive Antibacterial Agents” (J Med Chem, 2016).

≈ marks a conversion by molar mass, not a printed value. Calls of active or inactive are those of the source. No cut-off for these calls is given here.

The subject of data set [1] is Pseudomonas aeruginosa. Put plainly: Antibacterial activity against Pseudomonas aeruginosa ATCC 27853 after 20 to 24 hrs in presence of polymyxin B nonapeptide. The format is functional.
For data set [2], the system named is Staphylococcus aureus. Put plainly: Bactericidal activity against methicillin-sensitive Staphylococcus aureus ATCC 49775 after 24 and 48 hrs. Type of data set: functional.
Data set [3] is described as follows: Selectivity index, ratio of GI50 for human HEL299 cells to MIC50 for methicillin-sensitive Staphylococcus aureus clinical isolate. The format is functional, HEL 299.
Data set [4] deals with Staphylococcus aureus. Put plainly: Antibacterial activity against methicillin-sensitive Staphylococcus aureus ATCC 29213 after 20 to 24 hrs in presence of 50% heat inactivated bovine serum.
Data set [5] deals with Staphylococcus aureus. The data set can be described thus: Bactericidal activity against Methicillin-sensitive Staphylococcus aureus ATCC 29213 assessed as log reduction in bacterial cell number at 4 times MIC after 24 hrs by time kill curve analysis. The format is functional, organism-based.
Data set [6] is described as follows: Toxicity in po dosed rat. Type of data set: organism-based. To be noted: in vivo.
Data set [7] concerns Staphylococcus aureus. The data set can be described thus: Antibacterial activity against Staphylococcus aureus ATCC 29213 after 20 to 24 hrs in presence of 2% heat inactivated bovine serum. Type of data set: functional.
Data set [8] deals with Staphylococcus aureus. The data set can be described thus: Bactericidal activity against […] Staphylococcus aureus clinical isolate USA300 assessed as log reduction in bacterial cell number at 2 times MIC after 8 hrs by time-kill curve analysis. The format is functional.
The nature of data set [9]: Selectivity index, ratio of GI50 for human HepG2 cells to MIC50 for methicillin-sensitive Staphylococcus aureus clinical isolate. The format is functional.
The subject of data set [10] is Staphylococcus aureus. The data set can be described thus: Bactericidal activity against Methicillin-sensitive Staphylococcus aureus ATCC 29213 assessed as log reduction in bacterial cell number at 2 times MIC after 24 hrs by time kill curve analysis. The format is functional, organism-based.
Data set [11] has as its system Escherichia coli. Put plainly: Ratio of MIC90 for Escherichia coli ATCC 25922 to MIC90 for Escherichia coli ATCC 25922 in presence of polymyxin B nonapeptide. Type of data set: functional.
The test system of data set [12] is Staphylococcus aureus. Put plainly: Antibacterial activity against methicillin-sensitive Staphylococcus aureus ATCC 29213 after 20 to 24 hrs in presence of 50% heat inactivated bovine serum. The format is functional.
Data set [13] deals with Staphylococcus aureus. The data set can be described thus: Bactericidal activity against methicillin-sensitive Staphylococcus aureus ATCC 29213 after 24 and 48 hrs. The format is functional.
For data set [14], the system named is Staphylococcus aureus. Put plainly: Antibacterial activity against methicillin-resistant Staphylococcus aureus after 20 to 24 hrs. Type of data set: functional.
Data set [15] concerns Babesia microti. The data set can be described thus: Antiprotozoal activity against Babesia microti ATCC PRA-99 infected in BALB/c mouse assessed as suppression of parasitemia at 25 and 50 mg/kg, administered 4 times daily. Type of data set: functional.
The nature of data set [16]: Selectivity index, ratio of GI50 for human HepG2 cells to MIC50 for methicillin-resistant Staphylococcus aureus clinical isolate. The format is functional.
In data set [17] the test system is Staphylococcus aureus. The data set can be described thus: Bactericidal activity against methicillin-sensitive Staphylococcus aureus clinical isolate USA300 assessed as log reduction in bacterial cell number at MIC after 8 hrs by time-kill curve analysis. Type of data set: functional.

Broadly, the MIC90 is an inhibitory concentration at the 90% level, which refers to growth in some studies and to a panel of isolates in others. For orientation: MBC means the lowest tested concentration that kills the bacteria rather than only halting them. Broadly, the LD50 is the dose at which mortality reaches 50%. A lower LD50 goes with a more toxic substance. The MIC is the lowest concentration found to suppress growth. High values mean weaker potency, low ones greater potency. As for `N=C(N/N=C/c1ccc(Cl)cc1)N/N=C/c1ccc(Cl)cc1` [ROBENIDINE], the MIC90 in data set [1] is 21.6 µM; in [4], above 250 µM; in [7], 43.1 µM; in [12] it was above 250 µM. For the same compound, the MBC in data set [2] and in data set [13] was 5.4 µM (≈ 1.8 µg/mL) throughout. Also, the “Selectivity Index” value in [3], in [9] and in data set [16] was 2 in each case. In addition, the result in data set [5] and in [10] was inactive. The same compound registered an LD50 in data set [6] of 3000 mg/kg. In addition, the Activity result in data set [8] and in data set [17] was “>=4 log10CFU/ml” each time. Besides, the Ratio in [11] turned out to be 10. In addition, it took 8.1 µM (≈ 2.71 µg/mL) to inhibit growth in data set [14] (MIC). In data set [15], the “inhibition (INH)” value amounted to 100%.
